Results reported in the supplement of paper PMC10307832.

Columns and labels:
Test in all cases: relative viability (nuclei count vs DMSO), 5 days (fraction); higher = more cells survive
Carboplatin + Crizotinib = compound: C1CC(C1)(C(=O)O)C(=O)O.[NH2-].[NH2-].[Pt+2] [Carboplatin] + C[C@@H](Oc1cc(-c2cnn(C3CCNCC3)c2)cnc1N)c1c(Cl)ccc(F)c1Cl [Crizotinib] (partner 1 µM)
Outline: (§1)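 One day after seeding in 1536-well plates, lung cancer cell lines were dosed by pin tool. Dosing was either single-drug or a fixed anchor-drug dose plus five library-drug doses (not always all listed) in √10 steps. After 5 days, nuclei were stained in one fix-and-stain step and counted on 4× images, and relative viability is the nuclei count of treated wells over that of vehicle wells, given as the median of duplicate plates.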

GSK126 + Palbociclib = compound: CC[C@H](C)N1C=C(C2=C(C=C(C=C21)C3=CN=C(C=C3)N4CCNCC4)C(=O)NCC5=C(C=C(NC5=O)C)C)C [GSK126] + CC(=O)c1c(C)c2cnc(Nc3ccc(N4CCNCC4)cn3)nc2n(C2CCCC2)c1=O [Palbociclib] (partner 0.5 µM)
Outline: as §1

MLN4924 + Vorinostat = compound: NS(=O)(=O)OC[C@@H]1C[C@@H](n2ccc3c(N[C@H]4CCc5ccccc54)ncnc32)C[C@@H]1O [MLN4924] + O=C(CCCCCCC(=O)Nc1ccccc1)NO [Vorinostat] (partner 1 µM)
Outline: as §1

Cell Line | relative viability (Carboplatin + Crizotinib; first compound 0.08 µM) | relative viability (Carboplatin + Crizotinib; first compound 0.253 µM) | relative viability (Carboplatin + Crizotinib; first compound 0.8 µM) | relative viability (Carboplatin + Crizotinib; first compound 2.53 µM) | relative viability (Carboplatin + Crizotinib; first compound 8 µM) | relative viability (GSK126 + Palbociclib; first compound 0.08 µM) | relative viability (GSK126 + Palbociclib; first compound 0.253 µM) | relative viability (GSK126 + Palbociclib; first compound 0.8 µM) | relative viability (GSK126 + Palbociclib; first compound 2.53 µM) | relative viability (GSK126 + Palbociclib; first compound 8 µM) | relative viability (MLN4924 + Vorinostat; first compound 0.04 µM) | relative viability (MLN4924 + Vorinostat; first compound 0.1265 µM) | relative viability (MLN4924 + Vorinostat; first compound 0.4 µM) | relative viability (MLN4924 + Vorinostat; first compound 1.265 µM) | relative viability (MLN4924 + Vorinostat; first compound 4 µM)
SW 1573 | 0.821 | 0.781 | 0.652 | 0.886 | 0.661 | 0.496 | 0.472 | 0.435 | 0.361 | 0.403 | 0.48 | 0.521 | 0.14 | 0.0422 | 0.0551
NCI-H460 | 0.799 | 0.809 | 0.76 | 0.614 | 0.16 | 0.171 | 0.199 | 0.154 | 0.148 | 0.173 | 0.679 | 0.827 | 0.797 | 0.115 | 0.0271
COR-L23 | 0.561 | 0.645 | 0.606 | 0.48 | 0.28 | 0.307 | 0.265 | 0.259 | 0.279 | 0.352 | 0.414 | 0.34 | 0.195 | 0.0783 | 0.0885
NCI-H2009 | 1.06 | 1 | 0.987 | 0.965 | 0.611 | 0.183 | 0.176 | 0.181 | 0.257 | 0.322 | 0.584 | 0.345 | 0.214 | 0.106 | 0.103
NCI-H1563 | 0.975 | 0.901 | 0.834 | 0.853 | 0.854 |  |  |  |  |  |  |  |  |  | 
PC-3 [JPC-3] | 1.03 | 1.04 | 0.962 | 0.966 | 0.902 | 0.516 | 0.565 | 0.565 | 0.488 | 0.485 | 0.735 | 0.787 | 0.409 | 0.338 | 0.468
NCI-H1703 | 0.835 | 0.574 | 0.65 | 0.971 | 0.636 |  |  |  |  |  |  |  |  |  | 
NCI-H1648 |  |  |  |  |  | 0.291 | 0.357 | 0.275 | 0.288 | 0.293 | 0.249 | 0.296 | 0.276 | 0.224 | 0.309
NCI-H2085 | 1.01 | 0.932 | 0.778 | 0.754 | 0.676 | 0.477 | 0.456 | 0.466 | 0.453 | 0.47 | 0.769 | 0.829 | 0.837 | 0.635 | 0.45
EKVX | 1.19 | 1.09 | 0.985 | 0.875 | 0.947 | 0.455 | 0.366 | 0.38 | 0.405 | 0.363 | 0.632 | 0.276 | 0.41 | 0.201 | 0.217
NCI-H1792 | 1.07 | 1.04 | 0.945 | 0.888 | 0.866 | 0.642 | 0.627 | 0.659 | 0.661 | 0.629 |  |  |  |  | 
NCI-H2405 | 0.901 | 0.906 | 0.847 | 0.813 | 0.754 | 0.586 | 0.507 | 0.537 | 0.557 | 0.523 | 0.861 | 0.849 | 0.411 | 0.181 | 0.19
ABC-1 | 1.35 | 1.18 | 0.885 | 0.91 | 0.498 | 0.768 | 0.735 | 0.675 | 0.98 | 0.675 | 0.946 | 1.15 | 0.572 | 0.279 | 0.363
201T | 1.03 | 1.06 | 1.02 | 1.06 | 0.994 | 0.442 | 0.356 | 0.378 | 0.387 | 0.382 | 0.991 | 0.898 | 0.406 | 0.277 | 0.17
NCI-H1755 | 0.868 | 0.935 | 0.853 | 0.848 | 0.743 | 0.465 | 0.394 | 0.458 | 0.43 | 0.445 | 0.711 | 0.494 | 0.466 | 0.338 | 0.261
NCI-H647 | 1.11 | 1.04 | 1.01 | 1.11 | 0.632 | 0.482 | 0.366 | 0.363 | 0.382 | 0.5 | 0.414 | 0.391 | 0.0893 | 0.0464 | 0.0578
NCI-H1651 | 0.931 | 0.929 | 0.738 | 0.748 | 0.712 | 0.493 | 0.512 | 0.515 | 0.537 | 0.514 | 0.585 | 0.613 | 0.638 | 0.474 | 0.239
NCI-H1437 | 0.909 | 0.96 | 0.892 | 0.936 | 0.805 | 0.313 | 0.278 | 0.293 | 0.279 | 0.316 | 0.769 | 0.621 | 0.385 | 0.229 | 0.193
IA-LM | 0.772 | 0.818 | 0.767 | 0.694 | 0.486 |  |  |  |  |  | 0.653 | 0.194 | 0.17 | 0.0544 | 0.0516
SW 900 |  |  |  |  |  | 0.659 | 0.514 | 0.518 | 0.61 | 0.585 |  | 0.414 | 0.182 | 0.175 | 0.208
A549 | 0.963 | 0.789 | 0.697 | 0.598 | 0.294 |  |  |  |  |  |  |  |  |  | 
NCI-H1299 | 0.932 | 0.91 | 0.88 | 0.885 | 0.835 |  |  |  |  |  |  |  |  |  | 
NCI-H2342 |  |  |  |  |  | 0.566 | 0.575 | 0.508 | 0.572 | 0.522 | 0.809 | 0.814 | 0.837 | 0.873 | 0.625
NCI-H1793 |  |  |  |  |  | 0.351 | 0.318 | 0.299 | 0.351 | 0.273 | 0.665 | 0.662 | 0.886 | 0.328 | 0.205
NCI-H1395 |  |  |  |  |  | 0.656 | 0.568 | 0.597 | 0.681 | 0.505 | 0.556 | 0.766 | 0.523 | 0.341 | 0.361
NCI-H522 |  |  |  |  |  | 1.09 | 0.772 | 0.991 | 1.06 | 1.07 | 0.704 | 0.726 | 0.567 | 0.344 | 0.378
EBC-1 | 0.186 | 0.202 | 0.175 | 0.182 | 0.2 |  |  |  |  |  |  |  |  |  | 
Calu-6 | 0.916 | 0.924 | 0.763 | 0.639 | 0.338 |  |  |  |  |  |  |  |  |  | 
NCI-H596 | 0.895 | 0.983 | 0.834 | 0.783 | 0.735 |  |  |  |  |  | 0.471 | 0.597 | 0.601 | 0.382 | 0.418
